In patent publication US10653672B2, “Myogenesis promotor, muscle atrophy inhibitor, medical composition and TAZ activator” (National University Corporation Tokyo Medical and Dental …, priority 2014, dated 2020):

Experiments:
A431 cells = assay: Proliferation of A431 cells in 3D matrigel; format: cell-based; conditions: A431 cells in 2% BD Matrigel; 10 μM; 10 days; maximum diameter of 30 cell aggregates
Experimental: (2) Each well of a 96-well plate was pre-coated with 30 μL BD Matrigel (trade name, Becton, Dickinson and Company). A431 cells were suspended in the 2% BD Matrigel at a concentration of 2.1×10^6 cells/mL. This cell solution (140 μL) was added with 0.17 μL of 10 mM IBS008739 stock solution in DMSO or 0.17 μL of DMSO, and used to layer the pre-coated wells, and proliferation in the 3D matrigel was observed (see FIG. 12B). 300 of A431 cells were placed in each well of Ultra Low Attachment 96-well plate, and cultured in a serum-free DMEM-F-12 medium containing 10 ng/mL FGF, 5 μg/mL insulin and 0.1% (w/v) BSA. Formation of tumor spheres was observed under the condition with 10 mM IBS008739 stock solution dissolved in DMSO so that the final concentration was 10 μM, or the condition with DMSO of the same volume (see FIG. 12C). The maximum diameter of 30 cell aggregates of 150 μm or more observed in the 3D matrigel or sphere formation condition) are measured as the size of 3D colony or sphere. The results are shown in Table 10 and FIGS. 12B and 12C. The line in the figure is 200 μm. The line and the error bar indicate the average value and the standard error, and ns refers to not significant.
Observation of the spheres and the 3D matrigel cultivation were performed by the following processes. […]

TAZ = assay: Localization of TAZ in the cell by cell fraction; format: cell-based, mouse; conditions: C2C12 cells, 24 hours under differentiation condition
Experimental: Phosphorylation of TAZ and its localization in the cell are important factors in controlling the activity of TAZ. The localization of TAZ in the cell was examined by performing cell fraction of C2C12 cells after being cultured for 24 hours under differentiation condition in a medium added with IBS008738 or DMSO.

C2C12 cells [1] = assay: Evaluation of myogenesis of C2C12 cells by fusion index; format: cell-based, mouse; conditions: differentiation condition 72 hours, DMSO as 1, average of three
Experimental: (1) C2C12 cells were grown to confluence under growth condition, and then in differentiation condition for 72 hours, in a culture medium added with DMSO, IBS008738 (exemplary compound 1) or exemplary compounds 2 to 44, at a concentration of 1 μM, 3 μM or 10 μM, respectively. Thereafter, the degree of myogenesis was evaluated by a fusion index (a value obtained by dividing the number of nuclei detected in multinucleated myosin heavy chain (MHC)-positive cells by the total number of the nuclei). Specifically, exemplary compounds were divided into five groups, and DMSO and IBS008738 were evaluated in each group as controls. The evaluation was conducted three times, and the average value and the standard deviation of the fusion index was relativized with the measured value of DMSO as 1.
C2C12 cells were passaged in a growth medium (DMEM containing 10% FBS) and differentiated in a differentiation medium (DMEM containing 2% horse serum (Invitrogen)).

C2C12 cells [2] = assay: Antagonistic action on myostatin in C2C12 cells; format: cell-based, mouse; conditions: TAZ knocked down (si TAZ); with myostatin; differentiation condition 72 hours
From the text: Myostatin is a protein and a member of a transforming growth factor […] superfamily, and inhibits muscle growth and differentiation. Myostatin binds activin type IIB receptor and triggers SMAD2/3-dependent signaling. Since TAZ interacts with SMAD2/3, effects of IBS008738 on the signaling of myostatin was examined (FIGS. 8A to 8C). The line in the figures is 100 μm. The line and the error bar indicate the average value and the standard error, *p<0.05, […], ***p<0.001, ns refers to not significant.
(1) C2C12 cells in which TAZ was knocked down (si TAZ) and C2C12 cells in which TAZ was not knocked down (si Cont) were grown to confluence, respectively, A stock solution of 100 μg/mL myostatin in 4 mM […] with 0.1% (w/v) BSA and a stock solution of 10 mM IBS008738 in DMSO were prepared. The cells were cultured at differentiation condition for 72 hours in a 1 mL medium with 1 μL DMSO, a 1 mL medium with 1 μL myostatin stock solution, and a 1 mL medium with 1 μL IBS008738 stock solution. As a result, muscle formation of the C2C12 cells was inhibited in the case with only myostatin, but muscle formation of the C2C12 cells was recovered in the case with myostatin and IBS008738.
(2) The fusion index of C2C12 cells in which TAZ was knocked down (si TAZ) and C2C12 cells in which TAZ was not knocked down (si Cont), after being cultured under differentiation condition for 72 hours, was analyzed.
Expression of MHC of C2C12 cells in which TAZ was knocked down (si TAZ) and C2C12 cells in which TAZ was not knocked down (si Cont), after being cultured under differentiation condition for 72 hours, was analyzed by immunoblotting. As a result, expression of MHC decreased in the case with only myostatin, whereas it recovered in the case with myostatin and IBS008738 (see FIG. 8C).

Cc1ccc(-n2cnc(/N=C/N3CCOCC3)c2C(=O)c2ccccc2)cc1 [exemplary compound 1]
3D colony size, average size (μm) (A431 cells): 272.30 μm | effect on the localization of TAZ in the cell (TAZ): no effect | relative fusion index (FI) (C2C12 cells [1]; Group 1, 1 μM): 1.47 | relative fusion index (FI) (C2C12 cells [1]; Group 1, 3 μM): 1.89 | relative fusion index (FI) (C2C12 cells [1]; Group 1, 10 μM): 2.00 | relative fusion index (FI) (C2C12 cells [1]; Group 2, 1 μM): 1.33 | relative fusion index (FI) (C2C12 cells [1]; Group 2, 3 μM): 1.80 | relative fusion index (FI) (C2C12 cells [1]; Group 2, 10 μM): 2.03 | relative fusion index (FI) (C2C12 cells [1]; Group 3, 1 μM): 1.28 | relative fusion index (FI) (C2C12 cells [1]; Group 3, 3 μM): 1.67 | relative fusion index (FI) (C2C12 cells [1]; Group 3, 10 μM): 1.76 | relative fusion index (FI) (C2C12 cells [1]; Group 4, 1 μM): 1.13 | relative fusion index (FI) (C2C12 cells [1]; Group 4, 3 μM): 1.53 | relative fusion index (FI) (C2C12 cells [1]; Group 4, 10 μM): 1.68 | relative fusion index (FI) (C2C12 cells [1]; Group 5, 1 μM): 1.10 | relative fusion index (FI) (C2C12 cells [1]; Group 5, 3 μM): 1.18 | relative fusion index (FI) (C2C12 cells [1]; Group 5, 10 μM): 1.33 | muscle formation of the C2C12 cells (C2C12 cells [2]): did not recover
